Test results reported in patent US20140080824A1, “STRUCTURE-GUIDED IDENTIFICATION OF BINDING INTERACTIONS OF HUMAN LAMININ RECEPTOR PRECURSOR WITH LAMININ AND IDENTIFICATION OF COMPOUNDS THAT AFFECT BINDING” (NEW YORK UNIVERSITY, priority 2010, published 2014).
“Also recorded” adds a separate entry of the source.

What was measured:
[1] = target: LamR (Homo sapiens, UniProt P08865); test: Small-molecule inhibition of recombinant LamR binding to laminin coated surface; conditions: for Reduction of LamR binding to laminin relative to the vehicle control (DMSO alone): purified recombinant LamR pre-incubated with small molecule, dose-dependent (FIG. 8a); for Effect on LamR binding to laminin (in words): purified recombinant LamR, FIG. 8a
Experimental: Compounds that interact with this described pocket, MRT (LRI) and MRF (LRI-F), display the properties of LamR inhibitors and are preferred for use in the methods of the present application. […] Binding was not reduced by several negative control compounds (Negative and DBP).
(§1) Wild type and mutant LamR binding affinity for laminin were tested in vitro. Clear polystyrene ELISA 96-well microplates, pre-coated with murine laminin (NEBiolabs), were blocked for 1 hour at 37° C. with blocking buffer (2% FCS, 1 mg/ml BSA, 0.1% sodium azide in PBS). Wells were incubated with increasing concentrations of purified wild type or mutant LamR for 1 h at 37° C. If a small molecule's effects on laminin binding were to be determined, the small molecule was pre-incubated with purified LamR for 15 minutes at 37° C. prior to addition of the mixture to the pre-coated plate. Each well was washed three times with wash buffer (0.5% Tween in PBS). Penta-His HRP conjugate (1:500) (Qiagen) was incubated for 2 h at RT and wells were washed three times with wash buffer. Substrate solution was added and incubated for approximately 10 minutes before reading the fluorescent absorbance detected at 490 nm on an ELISA plate reader (ELX800, Biotek Instruments, Inc.). Controls for buffer alone and binding of a nonspecific protein, A. fulgidus S2p, were also tested. Experiments were performed in triplicate. A binding curve and Kd were generated for wild type and mutant LamR using Prism software. The Kd was calculated using a one-site binding hyperbola and the equation Y=Bmax×X/(Kd+X). Each group was tested in triplicate and binding affinity was determined by normalizing to background fluorescence.

[2] = tested on: 3T3, HT1080 and C8161 cell lines; test: Cellular translation by 35S-methionine pulse-chase radiolabeling; format: cell-based; conditions: 10 μM, FIG. 9a
Experimental: As expected for compounds with these properties, the LamR inhibitors of the invention attenuated the translation process.
To label newly synthesized proteins, cells were pulsed with 20 μCi/mL ^35S-methionine radiolabeled amino acid (PerkinElmer) in standard growth media lacking methionine (MP Biomedicals) for 2 hours at 37° C. Following the pulse, normal growth medium was added for the chase to restore normal conditions for 90 minutes. MPER mammalian protein extraction reagent (Pierce) was used to lyse cells and collect protein. To quantity the amount of newly synthesized protein containing the radioisotope, 20 μg total protein was precipitated with 10% TCA for 20 minutes at 4° C. Precipitant was vacuum filtered and washed on glass microfiber filters (Whatman) using 5% TCA followed by 95% ethanol. Filters were dried under a heat lamp prior to addition of 3 mL scintillation fluid to count radioisotope incorporation by events on a Beckman LS3801 scintillation counter (Beckman). For measuring the effects small molecules had on the translation, cells in culture were pre-treated for 18 hours with 1-10 μM of small molecule prior to pulse/chase. As a control for arresting translation, 50 μg/mL cycloheximide was added 3 hours prior to assessment.

[3] = tested on: HT1080 cells; test: Growth inhibition of HT1080 cells; format: cell-based, human; conditions: FIG. 9b
Description: FIGS. 9a and 9b—Targeting LamR ribosomal and growth functions with inhibitors. (a) Inhibition of cellular translation in several cell lines by LamR inhibitor LRI-F (MRF/Face) by radiolabeled methionine pulse-chase. CHX, cycloheximide (b) Effects of treating HT1080 cells with LamR inhibitors. Dose dependent growth effects occur. *p-value <0.0001, n=3.
The analog compound LRI-F, an inhibitor of LamR, affected these functions.

[4] = tested on: HT1080 human fibrosarcoma cells; test: Experimental metastasis of luciferase expressing HT1080 cells in SCID mice; format: in vivo
Description: In addition, LamR has been described to be a critical factor of tumor metastasis. Clinical uses of the LamR inhibitors disclosed herein include their use as anti-metastatic anti-tumor agents. In a manner similar to that observed for the above-described in vitro cellular migration assays, compound LRI-F has such anti-metastatic properties in a murine model of experimental metastasis. […] Tumor cells were imaged via their expression of an exogenous firefly luciferase gene using the IVIS in vivo imaging system (Caliper/Xenogen).
Cells were washed once in PBS and re-suspended to a concentration of 1×10^6 cells/mL in PBS. 0.5 cc of the cell suspension (500,000 cells) was injected intravenously via the tail vein into SCID mice. Tumor implantation was monitored with IVIS Spectrum imaging technology (Caliper LS/Xenogen) following intra-peritoneal injection of luciferin substrate. Briefly, a camera is used to detect bioluminescent signal emitted from luciferase expressing cells. Mice are injected i.p. with 0.3 cc of 15 mg/mL beetle luciferin substrate (Promega) in PBS. Mice are anesthetized with isofluoran (2%)/oxygen mixture prior to imaging 5 minutes post substrate injection. Light is collected over a 1 minute imaging period at high binning to detect lung signal. Living Image Software version 3.0 (Caliper LS) is used to quantify and represent light signal.

[5] = tested on: HT1080 cells; test: HT1080 cell migration towards 10% FBS; format: cell-based, human
Experimental: In order to understand how this in vitro result translated into the cellular context, the ability of cells to migrate toward growth medium was tested in the presence and absence of the LamR inhibitors of the present invention. Since LamR on the cell surface serves the purpose of binding extracellular matrix laminin and facilitates migration and metastasis, it was expected that as inhibitors of cell surface LamR, the compounds of the present invention would reduce the migratory capability of cells. […] The migration of HT1080 cells was reduced to a level equivalent to the no migration control of no serum (No FBS).
HT1080 cells were tested for their ability to migrate toward normal growth media supplemented with 10% FBS or to 10 μg/mL purified laminin (Invitrogen) using the CytoSelect™ 24-well cell migration assay (8 μm, Colorimetric Format) (Cell Biolabs, Inc.). HT1080 cells were obtained from the American Type Culture Collection (Manassas, Va.). HT1080 cells were maintained in Dulbecco's modified Eagle's medium—[…] with 10% FBS. […] After agitation for 10 min at room temperature in extraction solution, 100 μl of each sample was transferred to an ELISA plate and read at 630 nm. […] Results were plotted using GraphPad Prism software, and statistical significance was calculated using a standard Student's t-test.

[6] = tested on: laminin; test: In vitro binding affinity of wild type and mutant LamR for laminin (ELISA on laminin pre-coated plates); set-up: species or system murine; conditions: immobilized laminin
Experimental: as §1, with “Penta-His HRP conjugate (1:500) (Qiagen) was incubated for 2 h at RT and wells were washed three times with wash buffer.” left out, “Controls for buffer alone and binding of a nonspecific protein, A. fulgidus S2p, were also tested. Experiments were performed in triplicate. A binding curve and Kd were generated for wild type and mutant LamR using Prism software.” left out
In total, 14 mutants were analyzed individually (Table 1, FIG. 1a). […] The purity of the proteins was monitored by SDS ? […] Purified recombinant LamR220 (greater than 95% purity) was incubated in serial dilution on pre-coated laminin plates, and binding was detected by anti-His HRP. […]

S=C(Nc1ccc2nc3c4ccccc4c4ccccc4c3nc2c1)N1CCOCC1 [MRF, N-dibenzo[a,c]phenazin-11-yl-4-morpholinecarbothioamide]
Reduction of LamR binding to laminin relative to the vehicle control (DMSO alone) [1]: approximately 50% | Effect on LamR binding to laminin (in words) [1]: block recombinant LamR binding to purified laminin coated surface | Translation of newly synthesized proteins relative to untreated control [2]: dramatic reduction | Growth effect in HT1080 cells [3]: growth inhibitory effects in HT1080 cells in a dose-dependent manner | Tumor signal from the lungs ([4]; 0.42 mg/20 g injected subcutaneously once 2 hours post-injection of cells, FIG. 10c-d): decreased tumor signal from the lungs | Ability of HT1080 cells to implant into the lungs after intravenous injection ([4]; cells pretreated with 10 μM before tail vein injection, SCID mice, FIG. 10a): marked decrease | Survival of mice compared to cells pretreated with DMSO vehicle ([4]; cells pretreated with 10 μM, FIG. 10b): prolonged survival

c1ccc2nc3c4ccccc4c4ccccc4c3nc2c1 [DBP, dibenzophenazine, reference compound]
Effect on LamR binding to laminin (in words) [1]: not reduced

C[C@@H]1C[C@@H]([C@H](O)CC2CC(=O)NC(=O)C2)C(=O)[C@@H](C)C1 [CHX, cycloheximide, reference compound]
Migration of HT1080 cells to 10% serum after small molecule treatment ([5]; cells pre-treated 2 hours with 5-10 μM small molecule, CHX 50 μg/mL 3 hours, FIG. 8b): did not result in loss of migratory ability

O=C(NCCO)c1ccc2nc3c4ccccc4c4ccccc4c3nc2c1 [MRT, N-(2-hydroxyethyl)dibenzo[a,c]phenazine-11-carboxamide]
Reduction of LamR binding to laminin relative to the vehicle control (DMSO alone) [1]: approximately 50% | Effect on LamR binding to laminin (in words) [1]: block recombinant LamR binding to purified laminin coated surface

B1: A. fulgidus S2p: Archaeoglobus fulgidus S2 ribosomal protein, non-laminin binding ortholog of LamR (protein, UniProt O29132 1-197, looked up)
Small ribosomal subunit …: MMEKEYEYLVPPDDYLAAGVHIGTQIKTGDMKKFIFKVRQDGLYVLDIRKLDERIRVAAKFLSRYEPSKILLVAARQYAHKPVQMFSKVVGSDYIVGRFIPGTLTNPMLSEYREPEVVFVNDPAIDKQAVSEATAVGIPVVALCDSNNSSADVDLVIPTNNKGRRALAIVYWLLAREIAKIRGQDFTYSIEDFEAEL
Laminin binding activity (in words) [6]: does not exhibit laminin-binding activity; also recorded: no binding | Inhibition of cell migration towards 10% FBS by recombinant protein ([5]; recombinant protein 1 μM in lower reservoir, FIG. 3b): not inhibited
